Assay results published in patent EP3677259A1, “USE OF ARACHIDONYL TRIFLUOROMETHYL KETONE” (Mosaiques Diagnostics And Therapeutics AG, priority 2019, dated 2020).
Where two headings read alike, the source gives them in different places.

Assays:
[1] = biological target: T1, GV sPLA2 (Homo sapiens, UniProt P39877); conditions: cited from earlier work
T1 sequence (P39877 21-138): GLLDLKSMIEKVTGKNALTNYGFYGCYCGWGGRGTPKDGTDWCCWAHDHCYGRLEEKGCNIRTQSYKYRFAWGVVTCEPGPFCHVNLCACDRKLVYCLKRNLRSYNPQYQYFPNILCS

[2] = biological target: T2, GVIA iPLA2 (Homo sapiens, UniProt O60733); conditions: cited from earlier work
T2 sequence (O60733 1-806): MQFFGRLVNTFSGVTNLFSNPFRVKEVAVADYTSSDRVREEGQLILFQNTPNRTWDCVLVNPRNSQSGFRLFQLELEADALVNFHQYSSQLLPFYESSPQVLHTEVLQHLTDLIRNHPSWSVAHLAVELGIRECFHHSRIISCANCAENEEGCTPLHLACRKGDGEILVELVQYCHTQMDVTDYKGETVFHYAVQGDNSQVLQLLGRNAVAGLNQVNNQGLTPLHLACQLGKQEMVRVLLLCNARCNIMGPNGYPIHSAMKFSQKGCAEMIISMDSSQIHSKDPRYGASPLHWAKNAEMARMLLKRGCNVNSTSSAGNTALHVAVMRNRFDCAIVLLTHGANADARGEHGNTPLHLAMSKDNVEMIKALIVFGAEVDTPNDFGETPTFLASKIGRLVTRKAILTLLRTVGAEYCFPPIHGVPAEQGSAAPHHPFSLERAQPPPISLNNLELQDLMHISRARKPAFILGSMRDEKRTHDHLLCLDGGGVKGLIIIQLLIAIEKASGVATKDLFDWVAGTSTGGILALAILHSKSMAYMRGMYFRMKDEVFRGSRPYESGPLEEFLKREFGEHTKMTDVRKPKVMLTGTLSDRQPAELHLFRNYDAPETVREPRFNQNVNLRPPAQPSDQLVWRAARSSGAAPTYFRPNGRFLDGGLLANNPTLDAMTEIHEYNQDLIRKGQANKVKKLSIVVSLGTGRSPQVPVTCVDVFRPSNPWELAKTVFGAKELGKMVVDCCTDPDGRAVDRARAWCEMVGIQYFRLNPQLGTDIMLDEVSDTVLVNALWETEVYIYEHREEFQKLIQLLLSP

[3] = biological target: T3, GIVA cPLA2 (Homo sapiens, UniProt P47712); conditions: cited from earlier work
T3 sequence (P47712 1-749): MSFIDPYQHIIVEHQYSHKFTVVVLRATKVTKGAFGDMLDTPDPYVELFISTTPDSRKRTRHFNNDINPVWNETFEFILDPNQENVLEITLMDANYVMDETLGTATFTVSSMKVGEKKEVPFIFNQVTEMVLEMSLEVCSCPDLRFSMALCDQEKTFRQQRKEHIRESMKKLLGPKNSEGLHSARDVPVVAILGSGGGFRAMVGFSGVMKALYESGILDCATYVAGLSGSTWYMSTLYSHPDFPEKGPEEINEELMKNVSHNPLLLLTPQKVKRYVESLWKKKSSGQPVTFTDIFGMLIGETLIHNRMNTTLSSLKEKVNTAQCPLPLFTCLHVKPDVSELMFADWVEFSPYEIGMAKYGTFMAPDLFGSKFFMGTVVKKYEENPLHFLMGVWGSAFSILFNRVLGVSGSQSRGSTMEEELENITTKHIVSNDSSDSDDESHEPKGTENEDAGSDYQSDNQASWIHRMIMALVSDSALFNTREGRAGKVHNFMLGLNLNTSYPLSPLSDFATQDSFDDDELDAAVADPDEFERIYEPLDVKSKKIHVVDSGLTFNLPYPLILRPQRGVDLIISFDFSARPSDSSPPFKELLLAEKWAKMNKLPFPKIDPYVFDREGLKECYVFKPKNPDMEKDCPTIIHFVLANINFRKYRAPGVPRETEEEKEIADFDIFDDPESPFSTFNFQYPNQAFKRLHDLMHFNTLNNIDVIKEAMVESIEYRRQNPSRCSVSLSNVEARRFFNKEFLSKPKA

[4] = test system: HAoSMCs; test: Relative mRNA expression of osteogenic markers MSX2, CBFA1, ALPL in HAoSMCs; format: cell-based, human; conditions: 10 µM arachidonic acid, 24 hours, vs. control
Method: Primary HAoSMCs were cultured in Waymouth's MB 752/1 medium and Ham's F-12 nutrient mixture (1:1, Gibco, Life Technologies) supplemented with 10% FBS (Gibco, Life Technologies) and 100 U/ml penicillin and 100 μg/ml streptomycin. HAoSMCs were grown to confluency and used in all experiments from passages 4 to 10. Calcification was induced with 3 mM sodium phosphate buffer as calcification medium. Treatment was performed over a period of 11 days. Figs. 1C-E are diagrams indicating relative mRNA expression in HAoSMCs of MSX2 (Fig. 1C), CBFA1 (Fig. 1D) and ALPL (Fig. 1E) as scatter dot plots and as arithmetic means ± SEM (n=6; arbitrary units, a.u.). mRNA expression was determined following treatment of the HAoSMCs for 24 hours with control or with 2 mM β-glycerophosphate (Pi) without or with additional treatment with 10 μM AACOCF3. **(p<0.01), ***(p<0.001) statistically significant vs. control treated […]<0.001) statistically significant vs. HAoSMCs treated with Pi alone. […] Conditions were as above (for Fig 2), namely primary HAoSMCs were cultured in Waymouth's MB 752/1 medium and Ham's F-12 nutrient mixture (1:1, Gibco, Life Technologies) supplemented with 10% FBS (Gibco, Life Technologies) and 100 U/ml penicillin and 100 μg/ml streptomycin. HAoSMCs were grown to confluency and used in all experiments from passages 4 to 10. […]

[5] = test system: human platelets; conditions: read-out: IC50, arachidonic acid mobilization, cited from earlier work
[6] = test system: Ca2+-independent group VI iPLA2; conditions: cited from earlier work

| Molecule | GV sPLA2 % Inhibition [1] [%] | GVIA iPLA2 % Inhibition [2] [%] | GIVA cPLA2 % Inhibition [3] [%] | GIVA cPLA2 X1(50) [3] | further results |
| --- | --- | --- | --- | --- | --- |
| CCCCCCCCCCCCCCC(=O)C(=O)O [12e] | <25 | <25 |  |  |  |
| CC(C)(C)OC(=O)CCCOC(=O)C(=O)CCCCc1ccccc1 [16c] | <25 | <25 | <25 |  |  |
| O=C(O)CCCOC(=O)C(=O)CCCCc1ccc(-c2ccccc2)cc1 [17d] | <25 | <25 | >95 | 0.00068 ± 0.00007 |  |
| O=C(O)CCCCOC(=O)C(=O)CCCCc1ccc(-c2ccccc2)cc1 [17f] | <25 |  | > 95 | 0.000078 ± 0.00001 |  |
| O=C(O)CCCOC(=O)C(=O)CCCc1ccc(-c2ccccc2)cc1 [17g] | <25 |  | > 95 | 0.0065 ± 0.002 |  |
| CCCCC/C=C\C/C=C\C/C=C\C/C=C\CCCC(=O)O [Arachidonic acid, arachidonic acid] |  |  |  |  | osteoinductive signaling (MSX2, CBFA1, ALPL relative mRNA expression) [4]: induces osteoinductive signaling |
| CCCCCCCCCCOc1ccc(OCC(=O)Cn2cc(C(=O)OC)c3cc(C(=O)O)ccc32)cc1 [CAY10502, 1-[3-(4-decoxyphenoxy)-2-oxopropyl]-3-methoxycarbonylindole-5-carboxylic acid] |  |  |  |  | IC50 ([5]; A23187-stimulated human platelets): 570 nM; IC50 ([5]; TPA-stimulated human platelets): 0.9 nM |
| CCOC(=O)CCCOC(=O)C(=O)CCCCc1ccccc1 [compound 19] | <25 | <25 |  |  |  |
| CCCCCCCCCCCCCCC(O)C(=O)OCCCC(=O)O (centres unmarked) [compound 20] |  | <25 | <25 |  |  |
| Palmityl trifluoromethylketone [PACOCF3] |  |  |  |  | IC50 [6]: 3800 nM |
